# Patent US8048892B2, “Azaquinolone based compounds exhibiting prolyl hydroxylase inhibitory activity, compositions, and uses thereof” (Amgen Inc., priority 2006, dated 2011)
# pIC50: −log10 of the molar value. Structures can show the parent of a compound that is named as a salt.
# Target: HIF PHD2 (Homo sapiens, UniProt Q9GZT9)
# Experiment: PHD2 inhibition assay (TR-FRET, VCB-Eu detection of hydroxylated P564-HIF1α peptide)
# Format: biochemical
# Settings: 2 nM PHD2, 100 nM P564-HIF1α peptide, 0.25 μM 2-oxoglutarate
# Protocol: Inhibition of HIF PHD2 activity was quantified utilizing the TR-FRET technology. HIF PHD2 catalyzes a hydroxyl modification on the proline residue of the P564-HIF1α peptide substrate (Biotin-DLEMLAPYIPMDDDFQL (SEQ ID NO: 7)) resulting in recognition and binding of the europylated Von Hippel-Lindau protein (pVHL), elongin B and elongin C heterotrimeric (VCB-Eu) complex.
# The PHD2 inhibition assay was executed by addition of freshly dissolved FeCl2 to 178.57 μM (100 μM final concentration) in PHD2 Reaction Buffer containing 30 mM MES, pH 6, 10 mM NaCl, 0.25% Brij-35, 0.01% BSA, and 1% DMSO. 28 μL of the iron solution and 2 μL of inhibitor compounds serially diluted in 100% DMSO (5% DMSO final) were added to black polypropylene 96-well microtiter plates. To that, 10 μL of 10 nM PHD2 (2 nM final) was added to all wells of the plate except for the 8 wells of column 12 (LO control), and allowed to incubate at room temperature on the shaker for one hour. Column 6 was the HI control containing PHD2 enzyme and 5% DMSO vehicle, but no inhibitor compound. To initiate the PHD2 enzymatic reaction, 10 μL of a solution containing 500 nM P564-HIF1α peptide (100 nM final), 10 mM ascorbic acid (2 mM final), and 1.25 μM 2-oxoglutarate (α-ketoglutarate; 0.25 μM final) in PHD2 Reaction Buffer was added to all wells of the plate and allowed to incubate on the shaker at room temperature for one hour.
# The reaction was terminated by addition of 25 μL TR-FRET Buffer (50 mM TRIS-HCl, pH 9, 100 mM NaCl, 0.05% BSA, and 0.5% Tween-20) containing 150 mM succinate (product inhibitor; 50 mM final), 75 nM streptavidin-APC (25 nM final), and 7.5 nM VCB-Eu (2.5 nM final). The TR-FRET detection reagents were placed on a shaker for 1 hour to reach binding equilibrium before reading on the Discovery platform (PerkinElmer). Europium is excited at 315 nm and phosphoresces at 615 nm with a large Stoke's shift. APC, in turn, emits at 655 nm upon excitation at 615 nm. The TR-FRET signal is measured as the ratio of the APC 655 nm signal divided by the internal europium reference 615 nm emission signal.
# The POC (percentage of control) was determined by comparing the signal from hydroxylated peptide substrate in the enzyme reaction containing inhibitor compound with that from PHD2 enzyme with DMSO vehicle alone (HI control), and no enzyme (LO control). POC was calculated using the formula: % control (POC)=(cpd−average LO)/(average HI−average LO)*100. Data (consisting of POC and inhibitor concentration in μM) was fitted to a 4-parameter equation (y=A+((B−A)/(1+((x/C)^D))), where A is the minimum y (POC) value, B is the maximum y (POC), C is the x (cpd concentration) at the point of inflection and D is the slope factor) using a Levenburg-Marquardt non-linear regression algorithm.
# Chain of HIF PHD2 (Q9GZT9 whole entry): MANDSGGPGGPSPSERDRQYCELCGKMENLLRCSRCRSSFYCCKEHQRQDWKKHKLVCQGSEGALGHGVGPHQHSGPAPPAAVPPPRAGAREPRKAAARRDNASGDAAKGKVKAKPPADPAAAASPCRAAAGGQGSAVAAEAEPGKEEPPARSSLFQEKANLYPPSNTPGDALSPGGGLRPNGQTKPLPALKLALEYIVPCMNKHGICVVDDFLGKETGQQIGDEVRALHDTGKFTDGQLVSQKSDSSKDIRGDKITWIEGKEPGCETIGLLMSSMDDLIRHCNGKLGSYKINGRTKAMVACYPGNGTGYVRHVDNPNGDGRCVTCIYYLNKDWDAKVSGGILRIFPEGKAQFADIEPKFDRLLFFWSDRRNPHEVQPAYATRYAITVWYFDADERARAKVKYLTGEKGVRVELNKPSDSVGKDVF
row,SMILES,pIC50
1,"COc1ncc(-c2cnc3c(c2)c(O)c(C(=O)NCC(=O)O)c(=O)n3C)cn1 [Example 64, 2-(4-Hydroxy-6-(2-methoxypyrimidin-5-yl)-1-methyl-2-oxo-1,2-dihydro-1,8-naphthyridine-3-carboxamido)acetic acid]",7.00 to 7.30
2,"C[C@H](NC(=O)c1c(O)c2ccc(C(F)(F)F)nc2n(C)c1=O)C(=O)O [Example 89, (S)-2-(4-Hydroxy-1-methyl-2-oxo-7-(trifluoromethyl)-1,2-dihydro-1,8-naphthyridine-3-carboxamido)propanoic acid]",7.00 to 7.30
3,"Cn1c(=O)c(C(=O)NCC(=O)O)c(O)c2cc(C3CCCC3)c(C(F)(F)F)nc21 [Example 98, 2-(6-Cyclopentyl-4-hydroxy-1-methyl-2-oxo-7-(trifluoromethyl)-1,2-dihydro-1,8-naphthyridine-3-carboxamido)acetic acid]",6.30 to 7.00
4,"Cn1c(=O)c(C(=O)NCC(=O)O)c(O)c2cc(-c3ccncc3)cnc21 [Example 43, 2-(4-Hydroxy-1-methyl-2-oxo-6-(pyridin-4-yl)-1,2-dihydro-1,8-naphthyridine-3-carboxamido)acetic acid]",6.30 to 7.00
5,"Cn1c(=O)c(C(=O)NCC(=O)O)c(O)c2cc(-c3cccc(N4CCCC4)c3)cnc21 [Example 60, N-((4-Hydroxy-1-methyl-2-oxo-6-(3-(1-pyrrolidinyl)phenyl)-1,2-dihydro-1,8-naphthyridin-3-yl)carbonyl)glycine]",6.30 to 7.00
6,"CN(C)c1ccccc1-c1cnc2c(c1)c(O)c(C(=O)NCC(=O)O)c(=O)n2C [Example 33, 2-(6-(2-(Dimethylamino)phenyl)-4-hydroxy-1-methyl-2-oxo-1,2-dihydro-1,8-naphthyridine-3-carboxamido)acetic acid]",7.00 to 7.30
7,"COc1ncccc1-c1cnc2c(c1)c(O)c(C(=O)NCC(=O)O)c(=O)n2C [Example 53, N-((4-Hydroxy-1-methyl-6-(2-(methyloxy)-3-pyridinyl)-2-oxo-1,2-dihydro-1,8-naphthyridin-3-yl)carbonyl)glycine]",> 7.30
8,"Cn1c(=O)c(C(=O)NCC(=O)O)c(O)c2cc(-c3ccc(F)nc3)cnc21 [Example 51, N-((6-(6-Fluoro-3-pyridinyl)-4-hydroxy-1-methyl-2-oxo-1,2-dihydro-1,8-naphthyridin-3-yl)carbonyl)glycine]",> 7.30
9,"Cn1c(=O)c(C(=O)NCC(=O)O)c(O)c2c(NCC(=O)O)nccc21 [Example 129, 2-{4-Hydroxy-1-methyl-2-oxo-3-[(carboxymethyl)carbamoyl]-1,2-dihydro-1,6-naphthyridin-5-ylamino}acetic acid, Trifluoroacetic acid salt]",> 7.30
10,"Cn1c(=O)c(C(=O)NCC(=O)O)c(O)c2ncc(C#N)cc21 [Example 6, 2-(7-Cyano-4-hydroxy-1-methyl-2-oxo-1,2-dihydro-1,5-naphthyridine-3-carboxamido)acetic acid]",> 7.30
11,"CC(C)c1cc2c(O)c(C(=O)NCC(=O)O)c(=O)n(C)c2cn1 [Example 113, N-((4-Hydroxy-1-methyl-6-(1-methylethyl)-2-oxo-1,2-dihydro-1,7-naphthyridin-3-yl)carbonyl)glycine]",> 7.30
12,"Cn1c(=O)c(C(=O)NCC(=O)O)c(O)c2cc(C#CC3CC3)c(C(F)(F)F)nc21 [Example 97, 2-(6-(2-Cyclopropylethynyl)-4-hydroxy-1-methyl-2-oxo-7-(trifluoromethyl)-1,2-dihydro-1,8-naphthyridine-3-carboxamido)acetic acid]",> 7.30
13,"CC(=O)N1CC=C(c2cc3c(O)c(C(=O)NCC(=O)O)c(=O)n(C)c3cn2)CC1 [Example 118, 2-(6-(1-Acetyl-1,2,3,6-tetrahydropyridin-4-yl)-4-hydroxy-1-methyl-2-oxo-1,2-dihydro-1,7-naphthyridine-3-carboxamido)acetic acid, Trifluoroacetic acid salt]",> 7.30
14,"Cc1ccc(-c2ccc3c(O)c(C(=O)NCC(=O)O)c(=O)n(C)c3n2)cc1 [Example 15, N-((4-Hydroxy-1-methyl-7-(4-methylphenyl)-2-oxo-1,2-dihydro-1,8-naphthyridin-3-yl)carbonyl)glycine]",6.30 to 7.00
15,"CC(C)C#Cc1cnc2c(O)c(C(=O)NCC(=O)O)c(=O)n(C)c2c1 [Example 9, 2-(4-Hydroxy-1-methyl-7-(3-methylbut-1-ynyl)-2-oxo-1,2-dihydro-1,5-naphthyridine-3-carboxamido)acetic acid]",> 7.30
16,"CN(C)c1ccc(-c2cnc3c(c2)c(O)c(C(=O)NCC(=O)O)c(=O)n3C)cc1 [Example 49, N-((6-(4-(Dimethylamino)phenyl)-4-hydroxy-1-methyl-2-oxo-1,2-dihydro-1,8-naphthyridin-3-yl)carbonyl)glycine]",6.30 to 7.00
17,"Cc1cc(C)nc(-c2cnc3c(c2)c(O)c(C(=O)NCC(=O)O)c(=O)n3C)n1 [Example 30, 2-(6-(4,6-Dimethylpyrimidin-2-yl)-4-hydroxy-1-methyl-2-oxo-1,2-dihydro-1,8-naphthyridine-3-carboxamido)acetic acid]",7.00 to 7.30
18,"CN(C)c1cccc(-c2cnc3c(c2)c(O)c(C(=O)NCC(=O)O)c(=O)n3C)c1 [Example 50, N-((6-(3-(Dimethylamino)phenyl)-4-hydroxy-1-methyl-2-oxo-1,2-dihydro-1,8-naphthyridin-3-yl)carbonyl)glycine]",> 7.30

# Continued, values first:
row,pIC50,SMILES
1,> 7.30,"Cc1ccnc(-c2cnc3c(c2)c(O)c(C(=O)NCC(=O)O)c(=O)n3C)n1 [Example 27, 2-(4-Hydroxy-1-methyl-6-(4-methylpyrimidin-2-yl)-2-oxo-1,2-dihydro-1,8-naphthyridine-3-carboxamido)acetic acid]"
2,> 7.30,"Cn1c(=O)c(C(=O)NCC(=O)O)c(O)c2cc(-c3ccc(N4CCOCC4)cc3)cnc21 [Example 63, N-((4-Hydroxy-1-methyl-6-(4-(4-morpholinyl)phenyl)-2-oxo-1,2-dihydro-1,8-naphthyridin-3-yl)carbonyl)glycine]"
3,> 7.30,"Cn1c(=O)c(C(=O)NCC(=O)O)c(O)c2ccc(-c3cccs3)nc21 [Example 14, N-((4-Hydroxy-1-methyl-2-oxo-7-(2-thienyl)-1,2-dihydro-1,8-naphthyridin-3-yl)carbonyl)glycine]"
4,> 7.30,"Cn1c(=O)c(C(=O)NCC(=O)O)c(O)c2ccc(Br)nc21 [Example 11, 2-(7-Bromo-4-hydroxy-1-methyl-2-oxo-1,2-dihydro-1,8-naphthyridine-3-carboxamido)acetic acid]"
5,> 7.30,"O=C(O)CNC(=O)c1c(O)c2ccc(C(F)(F)F)nc2[nH]c1=O [Example 87, 2-(4-Hydroxy-2-oxo-7-(trifluoromethyl)-1,2-dihydro-1,8-naphthyridine-3-carboxamido)acetic acid]"
6,> 7.30,"Cn1c(=O)c(C(=O)NCC(=O)O)c(O)c2ncc(C3CCCC3)cc21 [Example 5, 2-(7-Cyclopentyl-4-hydroxy-1-methyl-2-oxo-1,2-dihydro-1,5-naphthyridine-3-carboxamido)acetic acid]"
7,> 7.30,"Cn1c(=O)c(C(=O)NCC(=O)O)c(O)c2cc(C#N)cnc21 [Example 85, N-((6-Cyano-4-hydroxy-1-methyl-2-oxo-1,2-dihydro-1,8-naphthyridin-3-yl)carbonyl)glycine]"
8,> 7.30,"Cn1c(=O)c(C(=O)NCC(=O)O)c(O)c2cc(-c3cncnc3)cnc21 [Example 61, N-((4-Hydroxy-1-methyl-2-oxo-6-(5-pyrimidinyl)-1,2-dihydro-1,8-naphthyridin-3-yl)carbonyl)glycine]"
9,> 7.30,"Cn1c(=O)c(C(=O)NCC(=O)O)c(O)c2ccnc(-c3ccccc3)c21 [Example 128, 2-(4-Hydroxy-1-methyl-2-oxo-8-phenyl-1,2-dihydro-1,7-naphthyridine-3-carboxamido)acetic acid]"
10,> 7.30,"Cn1c(=O)c(C(=O)NCC(=O)O)c(O)c2ccc(C(F)(F)F)nc21 [Example 86, 2-(4-Hydroxy-1-methyl-2-oxo-7-(trifluoromethyl)-1,2-dihydro-1,8-naphthyridine-3-carboxamido)acetic acid]"
